Test results from patent publication US20250263395A1, “COMPOUNDS THAT MEDIATE PROTEIN DEGRADATION AND METHODS OF USE THEREOF” (Monte Rosa Therapeutics AG, priority 2022, published 2025).

Assays:
CRBN-DDB1 = CRBN-DDB1 (Homo sapiens (Human), UniProt Q96SW2); assay: CRBN HTRF assay (Cy5-Thalidomide probe displacement); type: binding; details: CRBN-DDB1 2.5 nM, Cy5-Thalidomide 100 nM, 30 min; Ki from geometric mean IC50 by Cheng-Prusoff
Procedure, shortened: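 HTRF displacement of Cy5-thalidomide probe (100 nM) from His-CRBN-DDB1 (2.5 nM) with anti-His terbium cryptate, in HEPES/NaCl/TCEP/EDTA/Tween20 buffer. 10-point 1:3 compound series, 30 min at ambient temperature; signal normalised to DMSO and lenalidomide controls, IC50 fitted and Ki derived by Cheng-Prusoff.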

CDK2 = CDK2 (Homo sapiens (Human), UniProt P24941); assay: CDK2 NanoBiT assay (HiBiT-tagged CDK2 degradation); type: cell-based; details: HEK293, HEK293 clonal line, C-terminal HiBiT tag on CDK2, LgBiT; 24 hours
Procedure, shortened: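 HEK293 line with CRISPR knock-in C-terminal HiBiT-tagged CDK2 and stable LgBiT, preincubated 16 h with live-cell substrate, then compound-treated 24 h at 37° C, 5% CO2 (30 μM stock). Luminescence normalized to plate negative and positive controls; EC50 from 3-parameter logistic fit, Hill slope 1.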

Chain of CRBN-DDB1 (Q96SW2 whole entry): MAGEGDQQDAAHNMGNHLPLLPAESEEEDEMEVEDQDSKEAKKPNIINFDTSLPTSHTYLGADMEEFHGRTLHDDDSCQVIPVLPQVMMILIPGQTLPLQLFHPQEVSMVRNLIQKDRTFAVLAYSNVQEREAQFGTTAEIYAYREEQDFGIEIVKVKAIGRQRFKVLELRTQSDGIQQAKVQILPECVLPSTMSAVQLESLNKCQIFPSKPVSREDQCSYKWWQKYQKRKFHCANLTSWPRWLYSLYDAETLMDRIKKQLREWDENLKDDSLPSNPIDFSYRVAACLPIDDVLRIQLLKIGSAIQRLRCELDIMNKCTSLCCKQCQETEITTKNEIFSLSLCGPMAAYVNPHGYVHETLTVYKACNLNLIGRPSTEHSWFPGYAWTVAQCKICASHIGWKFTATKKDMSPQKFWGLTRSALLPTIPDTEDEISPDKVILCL
Chain of CRBN-DDB1 (Q16531 whole entry partner): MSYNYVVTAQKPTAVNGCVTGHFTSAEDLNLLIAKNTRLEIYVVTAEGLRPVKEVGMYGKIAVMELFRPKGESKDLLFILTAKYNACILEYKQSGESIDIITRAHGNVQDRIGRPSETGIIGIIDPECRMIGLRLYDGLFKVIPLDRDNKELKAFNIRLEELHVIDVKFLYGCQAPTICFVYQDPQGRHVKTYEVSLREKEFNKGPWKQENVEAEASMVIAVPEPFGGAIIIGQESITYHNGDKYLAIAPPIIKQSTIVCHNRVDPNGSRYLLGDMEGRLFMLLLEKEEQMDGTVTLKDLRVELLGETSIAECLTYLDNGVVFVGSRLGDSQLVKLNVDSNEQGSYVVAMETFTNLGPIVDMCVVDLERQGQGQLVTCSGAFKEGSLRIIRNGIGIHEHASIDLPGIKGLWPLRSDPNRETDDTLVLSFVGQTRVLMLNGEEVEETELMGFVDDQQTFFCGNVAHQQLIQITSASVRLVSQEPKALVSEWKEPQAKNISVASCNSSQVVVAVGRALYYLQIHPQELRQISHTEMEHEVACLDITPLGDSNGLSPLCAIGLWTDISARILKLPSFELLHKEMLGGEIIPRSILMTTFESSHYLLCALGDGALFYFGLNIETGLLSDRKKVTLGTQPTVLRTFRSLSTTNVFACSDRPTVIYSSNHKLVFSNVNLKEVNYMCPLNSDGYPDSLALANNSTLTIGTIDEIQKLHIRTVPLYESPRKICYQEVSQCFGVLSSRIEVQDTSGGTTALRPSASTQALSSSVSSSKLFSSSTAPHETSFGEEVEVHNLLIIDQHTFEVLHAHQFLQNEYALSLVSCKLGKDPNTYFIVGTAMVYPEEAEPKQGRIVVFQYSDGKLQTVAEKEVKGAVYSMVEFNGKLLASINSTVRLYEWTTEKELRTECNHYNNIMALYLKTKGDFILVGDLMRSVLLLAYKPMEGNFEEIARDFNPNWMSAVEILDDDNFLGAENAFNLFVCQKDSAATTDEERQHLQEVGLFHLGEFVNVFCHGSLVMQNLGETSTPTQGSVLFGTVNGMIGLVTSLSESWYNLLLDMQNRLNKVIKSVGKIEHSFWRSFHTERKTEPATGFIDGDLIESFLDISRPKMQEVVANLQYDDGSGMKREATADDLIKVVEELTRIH

Ki (CRBN-DDB1) [nM] | Dmax (CDK2) [%] | Compound
100 to 1000 | > 80 | COc1c(N2CC(NC(=O)OCC3CC4(CCC4)C3)C2)ccc(C2CCC(=O)NC2=O)c1Cl (stereo not drawn) [Compound 63, spiro[3.3]heptan-2-ylmethyl (1-(3-chloro-4-(2,6-dioxopiperidin-3-yl)-2-methoxyphenyl)azetidin-3-yl)carbamate]
≤ 100 | > 80 | O=C1CCC(c2c(F)cc(N3CC[C@@H](NC(=O)OCC4CC5(CCC5)C4)C3)cc2F)C(=O)N1 (stereo partly drawn) [Compound 64, spiro[3.3]heptan-2-ylmethyl ((3R)-1-(4-(2,6-dioxopiperidin-3-yl)-3,5-difluorophenyl)pyrrolidin-3-yl)carbamate]
≤ 100 | > 80 | CC(C)(CCOC(=O)NC1CN(c2cc(F)c(C3CCC(=O)NC3=O)c(F)c2)C1)C1CC1 (stereo not drawn) [Compound 65, 3-cyclopropyl-3-methylbutyl (1-(4-(2,6-dioxopiperidin-3-yl)-3,5-difluorophenyl)azetidin-3-yl)carbamate]
≤ 100 | > 80 | CC1(CCCOC(=O)NC2CN(c3cc(F)c(C4CCC(=O)NC4=O)c(F)c3)C2)CC1 (stereo not drawn) [Compound 66, 3-(1-methylcyclopropyl)propyl (1-(4-(2,6-dioxopiperidin-3-yl)-3,5-difluorophenyl)azetidin-3-yl)carbamate]
≤ 100 | > 80 | O=C1CCC(c2c(F)cc(N3CC(NC(=O)OC4CC5(CCCCC5)C4)C3)cc2F)C(=O)N1 (stereo not drawn) [Compound 67, spiro[3.5]nonan-2-yl (1-(4-(2,6-dioxopiperidin-3-yl)-3,5-difluorophenyl)azetidin-3-yl)carbamate]
100 to 1000 | > 80 | CC(C)C1CC(COC(=O)NC2CN(c3cc(F)c(C4CCC(=O)NC4=O)c(F)c3)C2)C1 (stereo not drawn) [Compound 68, (3-isopropylcyclobutyl)methyl (1-(4-(2,6-dioxopiperidin-3-yl)-3,5-difluorophenyl)azetidin-3-yl)carbamate]
≤ 100 | 50 to 80 | O=C1CCC(c2c(F)cc(N3CC(NC(=O)OC4CN(c5nc6ccccc6o5)C4)C3)cc2F)C(=O)N1 (stereo not drawn) [Compound 69, 1-(benzo[d]oxazol-2-yl)azetidin-3-yl (1-(4-(2,6-dioxopiperidin-3-yl)-3,5-difluorophenyl)azetidin-3-yl)carbamate]
≤ 100 | 50 to 80 | Cc1ccccc1N(C)C(=O)N1CC(OC(=O)NC2CN(c3cc(F)c(C4CCC(=O)NC4=O)c(F)c3)C2)C1 (stereo not drawn) [Compound 70, 1-(methyl(o-tolyl)carbamoyl)azetidin-3-yl (1-(4-(2,6-dioxopiperidin-3-yl)-3,5-difluorophenyl)azetidin-3-yl)carbamate]
≤ 100 | 50 to 80 | CN(C(=O)N1CC(OC(=O)NC2CN(c3cc(F)c(C4CCC(=O)NC4=O)c(F)c3)C2)C1)c1ccccc1Cl (stereo not drawn) [Compound 71, 1-((2-chlorophenyl)(methyl)carbamoyl)azetidin-3-yl (1-(4-(2,6-dioxopiperidin-3-yl)-3,5-difluorophenyl)azetidin-3-yl)carbamate]
≤ 100 | > 80 | CN(C(=O)N1CC(OC(=O)NC2CN(c3cc(F)c(C4CCC(=O)NC4=O)c(F)c3)C2)C1)c1ccc(F)cc1 (stereo not drawn) [Compound 72, 1-((4-fluorophenyl)(methyl)carbamoyl)azetidin-3-yl (1-(4-(2,6-dioxopiperidin-3-yl)-3,5-difluorophenyl)azetidin-3-yl)carbamate]
≤ 100 | 50 to 80 | CN(C(=O)N1CC(OC(=O)NC2CN(c3cc(F)c(C4CCC(=O)NC4=O)c(F)c3)C2)C1)c1ccc(C#N)cc1 (stereo not drawn) [Compound 73, 1-((4-cyanophenyl)(methyl)carbamoyl)azetidin-3-yl (1-(4-(2,6-dioxopiperidin-3-yl)-3,5-difluorophenyl)azetidin-3-yl)carbamate]
≤ 100 | 50 to 80 | O=C1CCC(c2c(F)cc(N3CC(NC(=O)OC4CN(C(=O)Cc5ccccc5)C4)C3)cc2F)C(=O)N1 (stereo not drawn) [Compound 74, 1-(2-phenylacetyl)azetidin-3-yl (1-(4-(2,6-dioxopiperidin-3-yl)-3,5-difluorophenyl)azetidin-3-yl)carbamate]
≤ 100 | 50 to 80 | Cn1c(N2CC(OC(=O)NC3CN(c4cc(F)c(C5CCC(=O)NC5=O)c(F)c4)C3)C2)nc2ccccc21 (stereo not drawn) [Compound 75, 1-(1-methyl-1H-benzo[d]imidazol-2-yl)azetidin-3-yl (1-(4-(2,6-dioxopiperidin-3-yl)-3,5-difluorophenyl)azetidin-3-yl)carbamate]
≤ 100 | 10 to 50 | CN(C)C(=O)C12CC(OC(=O)NC3CN(c4cc(F)c(C5CCC(=O)NC5=O)c(F)c4)C3)(C1)C2 (stereo not drawn) [Compound 76, 3-(dimethylcarbamoyl)bicyclo[1.1.1]pentan-1-yl (1-(4-(2,6-dioxopiperidin-3-yl)-3,5-difluorophenyl)azetidin-3-yl)carbamate]
≤ 100 | 10 to 50 | Cn1ccnc1N1CC(OC(=O)NC2CN(c3cc(F)c(C4CCC(=O)NC4=O)c(F)c3)C2)C1 (stereo not drawn) [Compound 77, 1-(1-methyl-1H-imidazol-2-yl)azetidin-3-yl (1-(4-(2,6-dioxopiperidin-3-yl)-3,5-difluorophenyl)azetidin-3-yl)carbamate]
≤ 100 | 50 to 80 | CN(C(=O)C12CC(OC(=O)NC3CN(c4cc(F)c(C5CCC(=O)NC5=O)c(F)c4)C3)(C1)C2)C1CC1 (stereo not drawn) [Compound 78, 3-(cyclopropyl(methyl)carbamoyl)bicyclo[1.1.1]pentan-1-yl (1-(4-(2,6-dioxopiperidin-3-yl)-3,5-difluorophenyl)azetidin-3-yl)carbamate]
≤ 100 | 50 to 80 | Cc1ccc(N2CC(OC(=O)NC3CN(c4cc(F)c(C5CCC(=O)NC5=O)c(F)c4)C3)C2)nc1 (stereo not drawn) [Compound 79, 1-(5-methylpyridin-2-yl)azetidin-3-yl (1-(4-(2,6-dioxopiperidin-3-yl)-3,5-difluorophenyl)azetidin-3-yl)carbamate]
≤ 100 | 50 to 80 | Cc1cccc(N2CC(OC(=O)NC3CN(c4cc(F)c(C5CCC(=O)NC5=O)c(F)c4)C3)C2)n1 (stereo not drawn) [Compound 80, 1-(6-methylpyridin-2-yl)azetidin-3-yl (1-(4-(2,6-dioxopiperidin-3-yl)-3,5-difluorophenyl)azetidin-3-yl)carbamate]
≤ 100 | > 80 | CN(C(=O)C12CC(OC(=O)NC3CN(c4cc(F)c(C5CCC(=O)NC5=O)c(F)c4)C3)(C1)C2)c1ccccc1 (stereo not drawn) [Compound 81, 3-(methyl(phenyl)carbamoyl)bicyclo[1.1.1]pentan-1-yl (1-(4-(2,6-dioxopiperidin-3-yl)-3,5-difluorophenyl)azetidin-3-yl)carbamate]
≤ 100 | > 80 | CN(CC1CC1)C(=O)C12CC(OC(=O)NC3CN(c4cc(F)c(C5CCC(=O)NC5=O)c(F)c4)C3)(C1)C2 (stereo not drawn) [Compound 82, 3-((cyclopropylmethyl)(methyl)carbamoyl)bicyclo[1.1.1]pentan-1-yl (1-(4-(2,6-dioxopiperidin-3-yl)-3,5-difluorophenyl)azetidin-3-yl)carbamate]
≤ 100 | 50 to 80 | O=C1CCC(c2c(F)cc(N3CC(NC(=O)OC4CN(c5ccccn5)C4)C3)cc2F)C(=O)N1 (stereo not drawn) [Compound 83, 1-(pyridin-2-yl)azetidin-3-yl (1-(4-(2,6-dioxopiperidin-3-yl)-3,5-difluorophenyl)azetidin-3-yl)carbamate]
≤ 100 | 10 to 50 | O=C1CCC(c2c(F)cc(N3CC(NC(=O)OCC#CC4CC4)C3)cc2F)C(=O)N1 (stereo not drawn) [Compound 84, 3-cyclopropylprop-2-yn-1-yl (1-(4-(2,6-dioxopiperidin-3-yl)-3,5-difluorophenyl)azetidin-3-yl)carbamate]
100 to 1000 | 10 to 50 | Cc1cc(N2CC(NC(=O)OC3CN(C(=O)N(C)C4CC4)C3)C2)cc(C)c1C1CCC(=O)NC1=O (stereo not drawn) [Compound 86, 1-(cyclopropyl(methyl)carbamoyl)azetidin-3-yl (1-(4-(2,6-dioxopiperidin-3-yl)-3,5-dimethylphenyl)azetidin-3-yl)carbamate]
100 to 1000 | 50 to 80 | Cc1cc(N2CC(NC(=O)OC3CN(C(=O)N(C)C4CC4)C3)C2)cc(Cl)c1C1CCC(=O)NC1=O (stereo not drawn) [Compound 87, 1-(cyclopropyl(methyl)carbamoyl)azetidin-3-yl (1-(3-chloro-4-(2,6-dioxopiperidin-3-yl)-5-methylphenyl)azetidin-3-yl)carbamate]
≤ 100 | 50 to 80 | CN(C(=O)N1CCC(OC(=O)NC2CN(c3cc(F)c(C4CCC(=O)NC4=O)c(F)c3)C2)CC1)C1CC1 (stereo not drawn) [Compound 88, 1-(cyclopropyl(methyl)carbamoyl)piperidin-4-yl (1-(4-(2,6-dioxopiperidin-3-yl)-3,5-difluorophenyl)azetidin-3-yl)carbamate]
> 1000 | 50 to 80 | N#Cc1cc(C2CCC(=O)NC2=O)ccc1N1CC(Nc2nnc(C3CC4(CCC4)C3)o2)C1 (stereo not drawn) [Compound 89, 5-(2,6-dioxopiperidin-3-yl)-2-(3-((5-(spiro[3.3]heptan-2-yl)-1,3,4-oxadiazol-2-yl)amino)azetidin-1-yl)benzonitrile]
100 to 1000 | > 80 | COc1c(N2CC(Nc3nnc(-c4ccc(OC(F)(F)F)cc4)o3)C2)ccc(C2CCC(=O)NC2=O)c1F (stereo not drawn) [Compound 90, 3-(2-fluoro-3-methoxy-4-(3-((5-(4-(trifluoromethoxy)phenyl)-1,3,4-oxadiazol-2-yl)amino)azetidin-1-yl)phenyl)piperidine-2,6-dione]
